According to the supplement of paper PMC10307832:

What was measured:
Test in all cases: relative viability (nuclei count vs DMSO), 5 days (fraction); higher = more cells survive
CX-5461 + Foretinib = compound: Cc1cnc(CNC(=O)c2c(=O)c3ccc(N4CCCN(C)CC4)nc3n3c2sc2ccccc23)cn1 [CX-5461] + COc1cc2c(Oc3ccc(NC(=O)C4(C(=O)Nc5ccc(F)cc5)CC4)cc3F)ccnc2cc1OCCCN1CCOCC1 [Foretinib] (partner 0.25 µM)
How it was run: (§1)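 A single step with final 0.05% Triton X-100, 1% formaldehyde and 1 ug/ml Hoechst fixed the cells and stained nuclei 5 days after treatment. Lung cancer cell lines in 1536-well plates had been treated by pin tool the day after seeding with one drug alone or a fixed anchor-drug dose plus five library-drug doses (not always all listed) in √10 steps, and nuclei were counted on 4× images. Relative viability is the ratio of nuclei in treated wells to nuclei in vehicle wells, taken as the median of duplicate plates.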

IMD-0354 + Pemetrexed = compound: O=C(Nc1cc(C(F)(F)F)cc(C(F)(F)F)c1)c1cc(Cl)ccc1O [IMD-0354] + Nc1nc2[nH]cc(CCc3ccc(C(=O)N[C@@H](CCC(=O)O)C(=O)O)cc3)c2c(=O)[nH]1 [Pemetrexed] (partner 0.2 µM)
How it was run: as §1

IMD-0354 + Lapatinib = compound: O=C(Nc1cc(C(F)(F)F)cc(C(F)(F)F)c1)c1cc(Cl)ccc1O [IMD-0354] + CS(=O)(=O)CCNCc1ccc(-c2ccc3ncnc(Nc4ccc(OCc5cccc(F)c5)c(Cl)c4)c3c2)o1 [Lapatinib] (partner 2 µM)
How it was run: as §1

IMD-0354 + OSI-027 = compound: O=C(Nc1cc(C(F)(F)F)cc(C(F)(F)F)c1)c1cc(Cl)ccc1O [IMD-0354] + COc1cccc2cc(-c3nc([C@H]4CC[C@H](C(=O)O)CC4)n4ncnc(N)c34)[nH]c12 [OSI-027] (partner 0.5 µM)
How it was run: as §1

| Cell Line | relative viability (CX-5461 + Foretinib; first compound 0.01 µM) | relative viability (CX-5461 + Foretinib; first compound 0.03162 µM) | relative viability (CX-5461 + Foretinib; first compound 0.1 µM) | relative viability (CX-5461 + Foretinib; first compound 0.3162 µM) | relative viability (CX-5461 + Foretinib; first compound 1 µM) | relative viability (IMD-0354 + Pemetrexed; first compound 0.04 µM) | relative viability (IMD-0354 + Pemetrexed; first compound 0.1265 µM) | relative viability (IMD-0354 + Pemetrexed; first compound 0.4 µM) | relative viability (IMD-0354 + Pemetrexed; first compound 1.265 µM) | relative viability (IMD-0354 + Pemetrexed; first compound 4 µM) | relative viability (IMD-0354 + Lapatinib; first compound 0.04 µM) | relative viability (IMD-0354 + Lapatinib; first compound 0.1265 µM) | relative viability (IMD-0354 + Lapatinib; first compound 0.4 µM) | relative viability (IMD-0354 + Lapatinib; first compound 1.265 µM) | relative viability (IMD-0354 + Lapatinib; first compound 4 µM) | relative viability (IMD-0354 + OSI-027; first compound 0.04 µM) | relative viability (IMD-0354 + OSI-027; first compound 0.1265 µM) | relative viability (IMD-0354 + OSI-027; first compound 0.4 µM) | relative viability (IMD-0354 + OSI-027; first compound 1.265 µM) | relative viability (IMD-0354 + OSI-027; first compound 4 µM) |
| --- | --- | --- | --- | --- | --- | --- | --- | --- | --- | --- | --- | --- | --- | --- | --- | --- | --- | --- | --- | --- |
| HCC-78 | 0.596 | 0.503 | 0.573 | 0.602 | 0.589 | 0.972 | 0.885 | 0.637 | 0.96 | 0.902 | 1.16 | 0.889 | 0.729 | 0.0878 | 0.234 | 0.321 | 0.363 | 0.314 | 0.296 | 0.283 |
| HCC-366 | 1.03 | 0.913 | 0.924 | 0.756 | 0.931 | 0.18 | 0.181 | 0.0918 | 0.0649 | 0.0246 | 0.91 | 1.41 | 0.118 | 0.0814 | 0.0302 | 0.909 | 0.929 | 0.496 | 0.209 | 0.0404 |
| HCC-827 | 1.08 | 1.09 | 1.02 | 1.03 | 1.06 | 0.26 | 0.267 | 0.243 | 0.19 | 0.163 | 0.195 | 0.187 | 0.186 | 0.168 | 0.145 | 0.67 | 0.693 | 0.621 | 0.225 | 0.196 |
| HOP-62 | 1.09 | 1.14 | 1.08 | 1.01 | 1.04 | 0.348 | 0.308 | 0.268 | 0.141 | 0.0739 | 0.974 | 1.13 | 0.603 | 0.662 | 0.0827 | 0.954 | 0.782 | 0.516 | 0.295 | 0.204 |
| IA-LM | 1.21 | 1.12 | 1.14 | 1.07 | 0.885 | – | – | – | – | – | 0.628 | 0.743 | 0.412 | 0.285 | 0.235 | – | – | – | – | – |
| LC-2-ad | 0.919 | 1.01 | 0.835 | 0.88 | 0.504 | 0.29 | 0.268 | 0.276 | 0.189 | 0.145 | 0.947 | 0.924 | 0.354 | 0.192 | 0.116 | 0.827 | 0.852 | 0.441 | 0.298 | 0.193 |
| LCLC-97TM1 | 0.953 | 1.02 | 1 | – | 0.975 | 0.202 | 0.162 | 0.102 | 0.0974 | 0.0756 | – | 0.792 | 0.419 | 0.27 | 0.144 | 0.519 | 0.489 | 0.265 | 0.186 | 0.148 |
| LCLC-103H | 0.81 | 0.867 | 0.681 | 1.02 | 0.798 | 0.518 | 0.491 | 0.446 | 0.317 | 0.266 | – | – | – | – | – | 0.592 | 0.471 | 0.375 | 0.295 | 0.196 |
| LK-2 | 1.17 | 0.942 | 1.26 | – | 1.24 | 0.284 | 0.31 | – | 0.172 | 0.111 | 1.14 | 0.9 | 0.545 | 0.844 | 0.288 | 0.193 | 0.198 | 0.235 | 0.19 | 0.215 |
| LOU-NH91 | 1.02 | 1.02 | 0.935 | – | 0.942 | 0.359 | 0.472 | 0.25 | 0.206 | 0.304 | 0.85 | 0.804 | 0.337 | 0.226 | 0.222 | 0.77 | 0.692 | 0.335 | 0.27 | 0.198 |
| LU99A | 0.818 | 0.797 | 0.764 | 0.495 | 0.798 | 0.194 | 0.201 | 0.143 | 0.188 | 0.149 | 0.708 | 0.952 | 0.604 | 0.247 | 0.165 | 0.351 | 0.286 | 0.246 | 0.259 | 0.196 |
| NCI-H441 | 0.88 | 1.02 | 0.615 | 0.889 | 0.778 | 0.255 | 0.251 | 0.289 | 0.177 | 0.147 | – | – | – | – | – | 0.593 | 0.604 | 0.329 | 0.169 | 0.231 |
| NCI-H522 | – | – | – | – | – | 1.35 | 0.895 | 0.91 | 0.62 | 0.397 | – | – | – | – | – | 0.723 | 0.683 | 0.688 | 0.385 | 0.343 |
| NCI-H727 | 0.96 | 1.14 | 0.949 | 0.722 | 0.837 | – | – | – | – | – | 0.801 | 0.84 | 0.55 | 0.439 | 0.325 | 0.93 | 0.585 | 0.415 | 0.395 | 0.312 |
| NCI-H1299 | 1.06 | 1.06 | 1.09 | 1.06 | 1.11 | – | – | – | – | – | 0.844 | 0.964 | 0.462 | 0.221 | 0.185 | – | – | – | – | – |
| NCI-H1623 | 0.971 | 0.871 | 0.809 | 0.934 | 0.723 | – | – | – | – | – | – | – | – | – | – | 0.464 | 0.395 | 0.458 | 0.409 | 0.37 |
| NCI-H1648 | – | – | – | – | – | 0.653 | 0.693 | 0.401 | 0.455 | 0.277 | – | – | – | – | – | – | 0.27 | 0.287 | 0.244 | 0.278 |
| NCI-H1703 | 0.359 | 0.311 | 0.357 | 0.363 | 0.28 | – | – | – | – | – | 0.936 | 1.03 | 0.475 | 0.202 | 0.21 | – | – | – | – | – |
| NCI-H1792 | – | – | – | – | – | 1.01 | 0.57 | 0.493 | 0.163 | 0.152 | 0.827 | 0.967 | 0.833 | 0.479 | 0.299 | 0.791 | 0.701 | 0.35 | 0.394 | 0.418 |
| NCI-H2342 | 0.98 | 1.1 | 1.07 | 1.03 | 1.08 | 0.814 | 0.822 | 0.585 | 0.508 | 0.408 | – | – | – | – | – | 0.723 | 0.659 | 0.499 | 0.472 | 0.482 |
| SW 900 | 0.967 | 0.968 | 1.07 | 1.08 | 0.811 | 0.544 | 0.519 | 0.329 | 0.182 | 0.196 | – | – | – | – | – | 0.64 | 0.674 | 0.308 | 0.263 | 0.248 |
